We go through 13 compounds from PMC12573178, “Substrate-Guided Development of HDAC11-Selective Inhibitors Featuring α‑Amino Amide Zinc-Binding Groups” (ACS Omega, 2025).

“And” between values parts separate entries of the source, which are not always exact repeats. Equal entries are not always repeated. “Also recorded” adds a separate entry of the source. Where two headings read alike, the source gives them in different places. Residues, ends and D or L forms follow the SMILES beside them. No end group written: not given here. ξ: configuration not given here. *: point of attachment. ξGly(tetradecyl) = CCCCCCCCCCCCCCC(N)C(=O)O; Myristoyl = CCCCCCCCCCCCCC(=O)*; X1 = CCCCCCCCCCCCCCC(S)C(=O)*

What is called IC50 is the concentration that inhibits the measured activity by half. A word on the Kd: it is a measure of binding affinity in units of concentration. Read a high Kd as a looser complex. Broadly, the Km is the concentration of substrate that gives half-maximal velocity.

Data set [1] is described as follows: Stability in aqueous solution. It counts as physicochemical. Particulars: 37 °C for 24 h.
Data set [2] deals with T1, HDAC11 (Homo sapiens, UniProt Q96DB2).
T1 sequence (Q96DB2 1-347): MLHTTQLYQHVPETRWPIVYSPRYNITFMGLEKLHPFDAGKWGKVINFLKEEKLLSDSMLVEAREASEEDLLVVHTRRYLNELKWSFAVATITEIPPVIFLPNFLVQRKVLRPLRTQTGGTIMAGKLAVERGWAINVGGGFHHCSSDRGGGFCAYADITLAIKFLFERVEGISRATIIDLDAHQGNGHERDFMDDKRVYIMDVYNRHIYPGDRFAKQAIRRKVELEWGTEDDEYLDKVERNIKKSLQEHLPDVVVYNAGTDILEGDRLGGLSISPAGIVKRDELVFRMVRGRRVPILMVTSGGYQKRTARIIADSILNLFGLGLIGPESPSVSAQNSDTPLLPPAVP
Put plainly: Substrate assay: incubation with HDAC11, UPLC-MS analysis of cleavage product. It counts as biochemical. Particulars: 50 μM compound, 10 or 100 nM HDAC11, 37 °C, 24 h. The protocol: Because acylated H3K9 peptides are known to be substrates of HDAC11, , it had to be analyzed if the presence of a substitution in close proximity to the hydrolyzable amide bond is sufficient to suppress the deacylation of the compound by HDAC11, thereby transforming a substrate into an inhibitor. Accordingly, 50 μM of the most promising compounds, specifically 2, 10, 17, and 18, were incubated in the presence of 10 or 100 nM of HDAC11 at 37 °C for 24 h, followed by UPLC–MS analysis. […] Consequently, compounds 17 and 18 were excluded from further analyses.
The peptides were incubated at 50 μM, together with 10 or 100 nM HDAC11 in HDAC11 buffer for 24 h at 37 °C. The solution was then analyzed using UPLC–MS.
F. UPLC-MS Data of the substrate test
In order to ascertain whether peptides 2, 10, 17 and 18 are possible substrates of HDAC11, 50 µM of the peptides were incubated with 100 nM HDAC11 for 24 hours at 37°C. Subsequently, a sample of the solutions was subjected to analysis using UPLC-MS. The presence of the double-charged peptide representing the expected cleavage product Ac-TARKSTG-NH2 of 2, 10, 17 and 18 with the m/z ratio of [M+2H]2+ (381.45) was taken as an indicator of a HDAC11-catalysed reaction. […]
exclusively HDAC11 in the assay buffer. No signal indicative for the product peptide was detected. […]
Absorbance at 220 nm is shown. […]

The target of data set [3] is T1, HDAC11. Nature of the data set: HDAC11 inhibition, continuous fluorescence-based assay with fatty-acylated peptide substrate. It is filed as biochemical. The note with it: for IC50: substrate Ac-EALPK(11-Abz-Aun)KY(3-NO2)GG-NH2 20 µM, triplicate, read-out: IC50 against HDAC11; for IC50 increase compared to 28: HDAC11. The protocol:
Inhibition of the enzymatic activity of HDACs was performed continuously for HDAC8, HDAC11, and SIRT2 and discontinuously for SIRT2, 3, and 6 using adequate substrates as described previously. , Experimental details are given in the Supporting Information.
A. HDAC and SIRT deacylase activity assays
Continuous in vitro HDAC inhibition assays
The inhibitors were tested using 384-well plates (GreinerONe). After 5 min of incubation of the inhibitors together with the respective enzymes (HDAC8 = 2 nM, HDAC11 = 20 nM, SIRT2 = 1 nM), the reactions were always started by the addition of substrate for the Zn2+-dependent HDAC and by the addition of NAD+ for SIRT2. The reactions were performed in either HDAC8 buffer (20 mM HEPES, 140 mM NaCl, 10 mM MgCl 2, 1 mM tris(2-carboxyethyl)phosphine (TCEP), and 0.2 mg/ml BSA, pH 7.4 adjusted with NaOH), HDAC11 buffer (20 mM HEPES, 70 µM TCEP and 2 mg/ml BSA, pH 7.4 adjusted with NaOH) or SIRT buffer (20 mM Tris, 150 mM NaCl, 5 mM MgCl2 and 2 mg/ml BSA pH 7.8 adjusted with HCl), respectively. The thiotrifluoracetylated substrate Abz-SRGGK(thio-TFA)FFRR-NH2 (50 µM) […]
Aun is N-(2-aminobenzoyl)-11-aminoundecanoyl, was used for HDAC11 and Ac-EALPKK(Myr)T-C(Fluorescein)-G-NH2 (40 nM) was used for SIRT2 1-3.
The fluorescence increase was followed for 1 h with two reads per min using a PerkinElmer Envision […]
The excitation wavelength for HDAC8 and 11 was 320 ± 8 nm and the […]
Positive (enzyme, substrate, DMSO, and buffer) and negative
(substrate, DMSO, and Buffer) controls were included in every measurement and were set as 100% and 0%, respectively. The measured values were normalized accordingly. All tests were performed in triplicates. The data were fitted using the GraphPad Prism8 software and kinetic values calculated through non-linear regression analysis. […]

Data set [4] has as its target T1, HDAC11. Put plainly: Microscale thermophoresis (MST) binding. The note with it: 20 nM 32, varying concentrations of HDAC11, 25 °C. The protocol:
Microscale thermophoresis (MST) was performed using a Monolith NT.115 (Nanotemper) with standard capillaries (MO-K022). The reaction solution contained a dilution series (1:1) of 16 different concentrations of HDAC11 (0.48 nM to 16 μM) and 20 nM 32 in MST buffer (20 mM MOPS buffer (pH 7.4 adjusted with NaOH), 0.2 mg/mL BSA, and 70 μM TCEP) and 5% (v/v) DMSO. After 5 min of incubation, the samples were loaded into capillaries and measured at 25 °C with a Filter Nano-BLUE at an excitation power of 20% and an MST power of 40%. The resulting data were fitted by MO.Affinity Analysis software (Nanotemper) via MST curves and fluorescence signals.
(In general: In MST a laser heats a spot of the sample, and binding alters the fluorescence response.)

Data set [5] has as its target T1, HDAC11. Also noted: method as in not printed per compound. The note with it: literature values, Figure 1; ref not printed per compound; read-out: IC50 as reported for HDAC11; cited from earlier work.
Data set [6] deals with global protein fatty acylation. Also noted: method as in previous studies (number not given). Particulars: treatment with pan-HDAC inhibitor; ref previous studies (number not given); cited from earlier work.
In data set [7] the target is T1, HDAC11. More on the design: method as in number not given. Particulars: myristoylated 12-mer peptide; ref number not given; read-out: KM value as substrate of HDAC11; cited from earlier work.

With `CCCCCCCCCCCCCCC(S)C(=O)NCCCC[C@H](NC(=O)[C@H](CCCNC(=N)N)NC(=O)[C@H](C)NC(=O)[C@@H](NC(C)=O)[C@@H](C)O)C(=O)N[C@@H](CO)C(=O)N[C@H](C(=O)NCC(N)=O)[C@@H](C)O` (stereo partly shown) [Compound 2] (Ac-TARK(X1)STG-NH2; N-terminus and C-terminus assumed), the “Stability in aqueous solution” value in data set [1] was “completely stable”. Also, in data set [2], the “Substrate properties / hydrolysis by HDAC11” value is listed as “no single recognisable peak is present at the expected time; also recorded: not able to hydrolyze”.
For `CCCCCCCCCCCCCCC(N)C(=O)NCCCC[C@H](NC(=O)[C@H](CCCNC(=N)N)NC(=O)[C@H](C)NC(=O)[C@@H](NC(C)=O)[C@@H](C)O)C(=O)N[C@@H](CO)C(=O)N[C@H](C(=O)NCC(N)=O)[C@@H](C)O` (stereo partly shown) [Compound 10] (Ac-TARK(ξGly(tetradecyl))STG-NH2; N-terminus and C-terminus assumed), the “Stability in aqueous solution” value in data set [1] was “completely stable”. The “Substrate properties / hydrolysis by HDAC11” value in data set [2] is “no single recognisable peak is present at the expected time; also recorded: not able to hydrolyze”.
With `CCCCCCSC[C@@H](N)C(=O)NCCCCC` [Compound 25], in data set [3], the IC50 was determined as 904 ± 118 nM.
For `CCCCCCCCSC[C@@H](N)C(=O)NCCCCC` [Compound 26], in data set [3], the IC50 was 399 ± 60 nM.
As to `CCCCCCCCCCSC[C@@H](N)C(=O)NCCCCC` [Compound 27], the IC50 in data set [3] was determined as 150 ± 10.7 nM.
As for `CCCCCCCCCCCCSC[C@@H](N)C(=O)NCCCCC` [Compound 28], in data set [3], the IC50 was found to be 56.1 ± 6 nM.
With `CCCCCCCCCCCCSC[C@@H](N)C(=O)NCc1cn(C)nn1` [Compound 29], the “IC50 increase compared to 28” value in data set [3] is recorded as “more than 10 fold”.
Regarding `CCCCCCCCCCCCSC[C@@H](N)C(=O)N1Cc2ccccc2C1` [Compound 30], the “IC50 increase compared to 28” value in data set [3] was “more than 10 fold”.
On to `CCCCCCCCCCCCSC[C@@H](N)C(=O)NCCCC[C@H](NC(=O)[C@H](CCCCN)NC(=O)CCC(=O)NCCCOCCOCCOCCCNC(=O)c1ccc2c(c1)C(=O)OC21c2ccc(O)cc2Oc2cc(O)ccc21)C(N)=O` [Compound 32], for which the Kd in data set [4] is 271 nM and 270 nM. The 50% inhibitory concentration (IC50) in data set [3] turned out to be 537 nM.
For `CCCCCOCCCCCNNC(=O)c1ccc(CNC(=O)c2ccccc2)cc1` [Compound B6], the IC50 in data set [5] is 51.1 nM.
Regarding `C/C=C1\NC(=O)[C@H]2CSSCC/C=C/[C@H](CC(=O)N[C@H](C(C)C)C(=O)N2)OC(=O)[C@H](C(C)C)NC1=O` [Romidepsin (FK-228), Romidepsin], the IC50 in data set [5] is 2700 nM.
Take `O=C(CCCCCCC(=O)Nc1ccccc1)NO` [Vorinostat (SAHA), vorinostat]: the “Global protein fatty acylation” value in data set [6] was “decrease in global protein fatty acylation”.
Take KQTARK(Myristoyl)STGGWW [H3K9(Myr)]: the Km in data set [7] was 17.3 µM.
